24 molecules from patent US20260274785A1, “CYCLOHEXYL OR HETEROCYCLOALKYL BETA-HYDROXY ALKYL AMINES FOR USE IN THE TREATMENT OF HYPERGLYCAEMIA AND DISORDERS CHARACTERISED BY HYPERGLYCAEMIA” (ATROGI AB, priority 2023, published 2026) can be followed below.

Where a name gives a salt, the structure may show the parent alone. Some results are limits rather than exact numbers.

In experiment [1] the test system is L6-myotubes. Put plainly: Measurement of intracellular cAMP levels in differentiated L6 cells. The following applies: Rattus norvegicus, 0.25 h, agonist final concentration 1×10^−5 M, 15 min, alpha screen cAMP kit, read-out: Biological example 2: intracellular cAMP levels, activity compared to that of isoproterenol. The format is cell-based. Here is the method:
(§1) L6-myoblasts were grown in Dulbecco's Modified Eagle's Medium (DMEM) containing 1 g/L glucose supplemented with 10% fetal bovine serum, 2 mM L-Glutamine, 50 U/mL penicillin, 50 μg/mL streptomycin and 10 mM HEPES. Cells were plated at 1×10^5 cells per mL in 24-well plates. After reaching 90% confluence the cells were grown in medium containing 2% FBS for 7 days where upon cells differentiated into myotubes.
Differentiated cells were serum-starved overnight and stimulated with an agonist, final concentration 1×10^−5 M, for 15 min in stimulation buffer (HBSS supplemented with 1% BSA, 5 mM HEPES and 1 mM IBMX, pH 7.4). The medium was aspirated and 100 μL of 95% EtOH was added to each well of the 24-well plate and cells were kept at −20° C. overnight. The EtOH was allowed to evaporate and 500 μL of lysis buffer (1% BSA, 5 mM HEPES and 0.3% Tween-20, pH 7.4) was added to each well. The plate was kept at −80° C. for 30 min and then at −20° C. until the day of detection when the samples were thawed. Intracellular cAMP levels were detected using an alpha screen cAMP kit (6760635D from Perkin Elmer). The activity for each compound is compared to that of isoproterenol.
For orientation: Cyclic AMP is a second messenger, typically raised through Gs and lowered through Gi signalling.

For experiment [2], the system named is L6-myotubes. Put plainly: Glucose uptake (3H-2-deoxyglucose) in differentiated L6-myotubes. To be noted: agonist final concentration 1×10^−5 M, 3H-2-deoxyglucose uptake, read-out: Biological example 1: glucose uptake, activity compared to that of isoproterenol. The format is cell-based. How it is done: as §1
Differentiated L6-myotubes were serum-starved overnight in medium containing 0.5% fatty-acid free BSA and stimulated with an agonist, with a final concentration of 1×10^−5 M. After 1 h 40 min the cells were washed with warm glucose free medium or PBS twice and another portion of agonist was added to the glucose free medium. After 20 min the cells were exposed to 50 nM ^3H-2-deoxyglucose for another 10 min before washed in ice cold glucose free medium or PBS three times and lysed in 400 μL/well 0.2 M NaOH for 1 h at 60° C. The cell lysate was mixed with 4 mL scintillation buffer (Emulsifier Safe, Perkin Elmer) and the radioactivity was detected in a β-counter (Tri-Carb 4810TR, Perkin Elmer). The activity for each compound is compared to that of isoproterenol.

`CC(C)(C[C@H]1CC[C@@H](NC[C@H](O)c2cccc(F)c2)CC1)NS(C)(=O)=O` [Example 2, N-(1-((cis)-4-(((R)-2-(3-fluorophenyl)-2-hydroxyethyl)amino)-cyclohexyl)-2-methylpropan-2-yl)methanesulfonamide]: the Emax at 10 µM in experiment [1] and in experiment [2] was below 25% in each case.

With `CC1(NC[C@H](O)c2cccc(F)c2)CCN(CC(=O)O)CC1` [Example 20, (R)-2-(4-((2-(3-Fluorophenyl)-2-hydroxyethyl)amino)-4-methyl-piperidin-1-yl)acetic acid acetate], the results for the Emax at 10 µM in experiment [1] and in experiment [2] were below 25% and 50 to 75%, respectively.

Regarding `COC(=O)CS(=O)(=O)N1CCC(C)(NC[C@H](O)c2cccc(F)c2)CC1` [Example 21, Methyl (R)-2-((4-((2-(3-fluorophenyl)-2-hydroxyethyl)amino)-4-methylpiperidin-1-yl)sulfonyl)acetate hydrochloride], the results for the Emax at 10 µM in experiment [1] and in experiment [2] were 25 to 50% and above 75%, respectively.

In the case of `CC1(NC[C@H](O)c2cncc(F)c2)CCN(S(C)(=O)=O)CC1` [Example 8, (R)-1-(5-Fluoropyridin-3-yl)-2-((4-methyl-1-(methylsulfonyl)piperidin-4-yl)amino)ethan-1-ol dihydrochloride], the values for the Emax at 10 µM in experiment [1] and in experiment [2] were 25 to 50% and above 75%, respectively.

As for `CC(=O)NC(C)(C)C[C@H]1CC[C@@H](NC[C@H](O)c2cccc(F)c2)CC1` [Example 1, N-(1-((cis)-4-(((R)-2-(3-Fluorophenyl)-2-hydroxyethyl)amino)-cyclohexyl)-2-methylpropan-2-yl)acetamide], the Emax at 10 µM was below 25% in experiment [1] and 50 to 75% in experiment [2].

In the case of `CC(=O)N[C@H]1CC[C@H](NC[C@H](O)c2cccc(F)c2)CC1` [Example 15, N-((trans)-4-(((R)-2-(3-Fluorophenyl)-2-hydroxyethyl)amino)-cyclohexyl)acetamide], the Emax at 10 µM is below 25% in experiment [1] and 25 to 50% in experiment [2].

As to `O=C(O)CO[C@H]1CC[C@H](NC[C@H](O)c2cccc(F)c2)CC1` [Example 10, 2-(((trans)-4-(((R)-2-(3-Fluorophenyl)-2-hydroxyethyl)amino)-cyclohexyl)oxy)acetic acid], the Emax at 10 µM in experiment [1] is below 25%; in experiment [2] it was 25 to 50%.

For `CC(=O)N1CCC(C)(NC[C@H](O)c2cncc(F)c2)CC1` [Example 7, (R)-1-(4-((2-(5-Fluoropyridin-3-yl)-2-hydroxyethyl)amino)-4-methyl-piperidin-1-yl)ethan-1-one], the Emax at 10 µM in experiment [1] was below 25%; in experiment [2] it was 50 to 75%.

Turning to `CS(=O)(=O)N[C@H]1CC[C@H](NC[C@H](O)c2cccc(F)c2)CC1` [Example 17, N-((trans)-4-(((R)-2-(3-Fluorophenyl)-2-hydroxyethyl)amino)-cyclohexyl)methanesulfonamide], the results for the Emax at 10 µM in experiment [1] and in experiment [2] were below 25% and 50 to 75%, respectively.

`CS(=O)(=O)N[C@H]1CC[C@@H](NC[C@H](O)c2cccc(F)c2)CC1` [Example 13, N-((cis)-4-(((R)-2-(3-Fluorophenyl)-2-hydroxyethyl)amino)cyclohexyl)-methanesulfonamide hydrochloride]: the Emax at 10 µM was below 25% in experiment [1] and 50 to 75% in experiment [2].

Take `CC(=O)N[C@H]1CC[C@@H](NC[C@H](O)c2cccc(F)c2)CC1` [Example 11, N-((cis)-4-(((R)-2-(3-fluorophenyl)-2-hydroxyethyl)amino)-cyclohexyl)acetamide]: the Emax at 10 µM in experiment [1] is below 25%; in experiment [2], 50 to 75%.

For `CS(=O)(=O)N[C@H]1CC[C@H](NC[C@H](O)c2cncc(F)c2)CC1` [Example 18, N-((trans)-4-(((R)-2-(5-fluoropyridin-3-yl)-2-hydroxyethyl)amino)-cyclohexyl)methanesulfonamide], the figures for the Emax at 10 µM in experiment [1] and in experiment [2] were below 25% and 50 to 75%, respectively.

As for `CC(=O)N[C@H]1CC[C@H](NC[C@H](O)c2cncc(F)c2)CC1` [Example 16, N-((trans)-4-(((R)-2-(5-Fluoropyridin-3-yl)-2-hydroxyethyl)amino)-cyclohexyl)acetamide], the Emax at 10 µM was below 25% in experiment [1] and 25 to 50% in experiment [2].

As to `CC1(NC[C@H](O)c2cccc(F)c2)CCN(S(C)(=O)=O)CC1` [Example 6, (R)-1-(3-Fluorophenyl)-2-((4-methyl-1-(methylsulfonyl)piperidin-4-yl)-amino)ethan-1-ol], the Emax at 10 µM in experiment [1] was below 25%; in experiment [2] it was above 75%.

Take `CC(=O)NC(C)(C)C[C@H]1CC[C@@H](NC[C@H](O)c2cncc(F)c2)CC1` [Example 3, N-(1-((cis)-4-(((R)-2-(5-Fluoropyridin-3-yl)-2-hydroxyethyl)amino)-cyclohexyl)-2-methylpropan-2-yl)acetamide]: the Emax at 10 µM is below 25% in experiment [1] and above 75% in experiment [2].

In the case of `COC(=O)CN1CCC(C)(NC[C@H](O)c2cccc(F)c2)CC1` [Example 19, Methyl (R)-2-(4-((2-(3-fluorophenyl)-2-hydroxyethyl)amino)-4-methyl-piperidin-1-yl)acetate dihydrochloride], the Emax at 10 µM in experiment [1] and in experiment [2] was above 75% each time.

Regarding `CS(=O)(=O)N[C@H]1CC[C@@H](NC[C@H](O)c2cncc(F)c2)CC1` [Example 14, N-((cis)-4-(((R)-2-(5-Fluoropyridin-3-yl)-2-hydroxyethyl)amino)-cyclohexyl)methanesulfonamide], the Emax at 10 µM in experiment [1] is below 25%; in experiment [2], above 75%.

With `CCOC(=O)CO[C@H]1CC[C@H](NC[C@H](O)c2cccc(F)c2)CC1` [Example 9, Ethyl 2-(((trans)-4-(((R)-2-(3-fluorophenyl)-2-hydroxyethyl)amino)-cyclohexyl)oxy)acetate], the Emax at 10 µM in experiment [1] was below 25%; in experiment [2], 25 to 50%.

For `CC(C)(C[C@H]1CC[C@@H](NC[C@H](O)c2cncc(F)c2)CC1)NS(C)(=O)=O` [Example 4, N-(1-((cis)-4-(((R)-2-(5-Fluoropyridin-3-yl)-2-hydroxyethyl)amino)-cyclohexyl)-2-methylpropan-2-yl)methanesulfonamide], the results for the Emax at 10 µM in experiment [1] and in experiment [2] were below 25% and 50 to 75%, respectively.

For `CC(=O)N[C@H]1CC[C@@H](NC[C@H](O)c2cncc(F)c2)CC1` [Example 12, N-((cis)-4-(((R)-2-(5-Fluoropyridin-3-yl)-2-hydroxyethyl)amino)-cyclohexyl)acetamide], the Emax at 10 µM in experiment [1] was below 25%; in experiment [2] it was above 75%.

For the molecule `CC1(NC[C@H](O)c2cccc(F)c2)CCN(S(=O)(=O)CC(=O)O)CC1` [Example 22, (R)-2-((4-((2-(3-Fluorophenyl)-2-hydroxyethyl)amino)-4-methyl-piperidin-1-yl)sulfonyl)acetic acid], the figures for the Emax at 10 µM in experiment [1] and in experiment [2] were below 25% and above 75%, respectively.

As for `CN(C)C(=O)N1CCC(C)(NC[C@H](O)c2cccc(F)c2)CC1` [Example 24, (R)-4-((2-(3-Fluorophenyl)-2-hydroxyethyl)amino)-N,N,4-trimethyl-piperidine-1-carboxamide acetate], the Emax at 10 µM in experiment [2] is above 75%.

On to `CC(=O)N1CCC(C)(NC[C@H](O)c2cccc(F)c2)CC1` [Example 5, (R)-1-(4-((2-(3-Fluorophenyl)-2-hydroxyethyl)amino)-4-methyl-piperidin-1-yl)ethan-1-one], for which the Emax at 10 µM in experiment [1] was below 25%; in experiment [2], 25 to 50%.

With `CCCCS(=O)(=O)N1CCC(C)(NC[C@H](O)c2cccc(F)c2)CC1` [Example 23, (R)-2-((1-(Butylsulfonyl)-4-methylpiperidin-4-yl)amino)-1-(3-fluoro-phenyl)ethan-1-ol acetate], the figures for the Emax at 10 µM in experiment [1] and in experiment [2] were 25 to 50% and above 75%, respectively.
